For one test, the target named is T1, human GCGR (Homo sapiens, UniProt P47871).
T1 construct: expressed in transfected cells; growth medium holds Blasticidin and Hygromycin
As to the kind of experiment: cAMP activity assay at the Glucagon receptor (GCGR). It counts as cell-based. The settings on record: for hGCGR/hGLP1R (hTone): ratio of GCGR EC50 to GLP1R EC50; for EC50: summary statement: EC50 at each of the glucagon and GLP-1 receptors, read-out: EC50 at the glucagon receptor. Put shortly:
(§1)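 Peptides serially diluted from DMSO (10 points) and added to frozen-stock cells bearing human GLP1R (10,000 cells/well) or GCGR (30,000 cells/well), 1 h at RT, dark. EC50 by four-parameter logistic fit of HitHunter cAMPXS luminescence, read following overnight RT incubation.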

Another test deals with T2, human GLP1R (Homo sapiens, UniProt P43220).
T2 construct: expressed in transfected cells; growth medium holds Blasticidin and Hygromycin
As to the kind of experiment: cAMP activity assay at the GLP-1 receptor (GLP1R). The settings on record: summary statement: EC50 at each of the glucagon and GLP-1 receptors; read-out: EC50 at the GLP-1 receptor. It counts as cell-based. The essentials:
as §1

Numbered stars: 1 amine (or outer) side, 2 acyl side, 3 side chain; on linkers, the order of the positions; unused ones are H or OH. Square brackets hold non-standard residues; d marks the D form. Side chains are listed from the residue outwards. Peptide text beside a SMILES is read from it. * marks the point of attachment. C16 diacid = O=C(O)CCCCCCCCCCCCCCC(=O)*; γGlu = O=C(O)[C@H](CCC(=O)[*:2])N[*:1]; Met(O2) = CS(=O)(=O)CC[C@H](N)C(=O)O; AEEA = NCCOCCOCC(=O)O; Aib = CC(C)(N)C(=O)O

T1 sequence (P47871 26-477): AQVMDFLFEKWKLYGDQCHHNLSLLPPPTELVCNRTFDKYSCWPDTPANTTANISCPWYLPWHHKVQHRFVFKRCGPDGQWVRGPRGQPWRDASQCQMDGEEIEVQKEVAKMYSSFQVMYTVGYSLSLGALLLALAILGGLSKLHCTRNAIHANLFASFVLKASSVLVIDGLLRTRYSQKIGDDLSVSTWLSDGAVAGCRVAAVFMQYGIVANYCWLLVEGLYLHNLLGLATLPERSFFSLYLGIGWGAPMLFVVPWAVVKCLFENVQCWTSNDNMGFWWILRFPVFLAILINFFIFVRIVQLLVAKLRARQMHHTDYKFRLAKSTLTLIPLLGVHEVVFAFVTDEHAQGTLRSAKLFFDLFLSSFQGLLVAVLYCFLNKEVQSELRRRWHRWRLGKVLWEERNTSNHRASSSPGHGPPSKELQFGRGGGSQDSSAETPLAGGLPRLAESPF
T2 sequence (P43220 24-463): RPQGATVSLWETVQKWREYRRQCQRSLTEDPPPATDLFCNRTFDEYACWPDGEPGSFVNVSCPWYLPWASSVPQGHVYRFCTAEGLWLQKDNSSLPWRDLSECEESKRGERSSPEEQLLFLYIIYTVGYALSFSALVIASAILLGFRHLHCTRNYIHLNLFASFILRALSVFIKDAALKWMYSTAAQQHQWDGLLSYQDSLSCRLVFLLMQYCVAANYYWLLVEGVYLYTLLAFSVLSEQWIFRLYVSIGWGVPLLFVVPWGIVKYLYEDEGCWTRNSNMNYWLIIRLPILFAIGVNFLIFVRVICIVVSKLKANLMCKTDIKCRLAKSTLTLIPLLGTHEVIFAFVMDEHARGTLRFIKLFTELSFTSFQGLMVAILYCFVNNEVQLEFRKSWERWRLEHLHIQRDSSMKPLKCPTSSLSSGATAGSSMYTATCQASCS

As to `CC(C)C[C@H](NC(=O)[C@H](Cc1ccc(O)cc1)NC(=O)[C@H](CCCCN)NC(=O)[C@H](CO)NC(=O)[C@H](Cc1ccc(O)cc1)NC(=O)[C@H](CC(=O)O)NC(=O)[C@H](CO)NC(=O)[C@@H](NC(=O)[C@H](Cc1ccccc1)NC(=O)[C@@H](NC(=O)CNC(=O)[C@H](CCC(N)=O)NC(=O)C(C)(C)NC(=O)[C@@H](N)Cc1c[nH]cn1)[C@@H](C)O)[C@@H](C)O)C(=O)N[C@@H](CC(=O)O)C(=O)N[C@@H](C)C(=O)N[C@@H](CCCNC(=N)N)C(=O)N[C@@H](C)C(=O)N[C@@H](C)C(=O)N[C@@H](CCC(N)=O)C(=O)N[C@@H](CCCCNC(=O)COCCOCCNC(=O)COCCOCCNC(=O)CC[C@H](NC(=O)CCCCCCCCCCCCCCC(=O)O)C(=O)O)C(=O)N[C@@H](Cc1ccccc1)C(=O)N[C@H](C(=O)N[C@@H](CCC(N)=O)C(=O)N[C@@H](Cc1c[nH]c2ccccc12)C(=O)N[C@@H](CC(C)C)C(=O)N[C@@H](CCS(C)(=O)=O)C(=O)N[C@@H](CCC(=O)O)C(=O)N[C@H](C(N)=O)[C@@H](C)O)C(C)C` [TP825] (H-H[Aib]QGTFTSDYSKYLDARAAQK([AEEA-AEEA-γGlu-C16 diacid])FVQWL[Met(O2)]ET-NH2; N-terminus assumed), the “hGCGR/hGLP1R (hTone)” value on human GCGR came to 2.0. The EC50 at human GCGR and at human GLP1R was under 5 nM each time.
Turning to `CC(C)C[C@H](NC(=O)[C@H](Cc1ccc(O)cc1)NC(=O)[C@H](CCCCN)NC(=O)[C@H](CO)NC(=O)[C@H](Cc1ccc(O)cc1)NC(=O)[C@H](CC(=O)O)NC(=O)[C@H](CO)NC(=O)[C@@H](NC(=O)[C@H](Cc1ccccc1)NC(=O)[C@@H](NC(=O)CNC(=O)[C@H](CCC(N)=O)NC(=O)C(C)(C)NC(=O)[C@@H](N)Cc1c[nH]cn1)[C@@H](C)O)[C@@H](C)O)C(=O)N[C@@H](CC(=O)O)C(=O)N[C@@H](C)C(=O)N[C@@H](CCCNC(=N)N)C(=O)N[C@@H](C)C(=O)N[C@@H](C)C(=O)N[C@@H](CCCCNC(=O)COCCOCCNC(=O)COCCOCCNC(=O)CC[C@H](NC(=O)CCCCCCCCCCCCCCC(=O)O)C(=O)O)C(=O)N[C@@H](CC(=O)O)C(=O)N[C@@H](Cc1ccccc1)C(=O)N[C@H](C(=O)N[C@@H](CCC(N)=O)C(=O)N[C@@H](Cc1c[nH]c2ccccc12)C(=O)N[C@@H](CC(C)C)C(=O)N[C@@H](CCS(C)(=O)=O)C(=O)N[C@@H](CCC(=O)N[C@H](C(N)=O)[C@@H](C)O)C(=O)O)C(C)C` [TP826] (H-H[Aib]QGTFTSDYSKYLDARAAK([AEEA-AEEA-γGlu-C16 diacid])DFVQWL[Met(O2)][γGlu]T-NH2), the “hGCGR/hGLP1R (hTone)” value at human GCGR is recorded as 2.7. Moreover, the EC50 on human GCGR and on human GLP1R was under 5 nM in each case.
Consider `CC(C)C[C@H](NC(=O)[C@H](Cc1ccc(O)cc1)NC(=O)[C@H](CCCCN)NC(=O)[C@H](CO)NC(=O)[C@H](Cc1ccc(O)cc1)NC(=O)[C@H](CC(=O)O)NC(=O)[C@H](CO)NC(=O)[C@@H](NC(=O)[C@H](Cc1ccccc1)NC(=O)[C@@H](NC(=O)CNC(=O)[C@H](CCC(N)=O)NC(=O)C(C)(C)NC(=O)[C@@H](N)Cc1c[nH]cn1)[C@@H](C)O)[C@@H](C)O)C(=O)N[C@@H](CC(=O)O)C(=O)N[C@@H](C)C(=O)N[C@@H](CCCNC(=N)N)C(=O)N[C@@H](C)C(=O)N[C@@H](C)C(=O)N[C@@H](CCC(N)=O)C(=O)N[C@@H](CCCCNC(=O)COCCOCCNC(=O)COCCOCCNC(=O)CC[C@H](NC(=O)CCCCCCCCCCCCCCC(=O)O)C(=O)O)C(=O)N[C@@H](Cc1ccccc1)C(=O)N[C@H](C(=O)N[C@@H](CCC(N)=O)C(=O)N[C@@H](Cc1c[nH]c2ccccc12)C(=O)N[C@@H](CC(C)C)C(=O)N[C@@H](CCS(C)(=O)=O)C(=O)N[C@@H](CCC(=O)N[C@H](C(N)=O)[C@@H](C)O)C(=O)O)C(C)C` [TP827] (H-H[Aib]QGTFTSDYSKYLDARAAQK([AEEA-AEEA-γGlu-C16 diacid])FVQWL[Met(O2)][γGlu]T-NH2), for which, at human GCGR, the “hGCGR/hGLP1R (hTone)” value was 1.6 and the EC50 (as a rule, the concentration at which the effect is half-maximal) was under 5 nM. For the same molecule, the EC50 at human GLP1R is under 5 nM.

Source of the values: patent publication US11566057B2, “Long-acting co-agonists of the glucagon and GLP-1 receptors” (Merck Sharp & Dohme Corp., priority 2017, dated 2023).
